Test [1] has as its system Arabidopsis seed germination and hypocotyl growth. The test can be described thus: Arabidopsis seed germination and hypocotyl growth. In kind it is in vivo. Particulars: for minimal effective concentration: Arabidopsis thaliana; for Hypocotyl Growth Inhibition / Germination Inhibition: Germination Inhibition II, tested at 10 and 50 uM; for Hypocotyl Growth Inhibition: lowest concentration that inhibited hypocotyl growth in wells where seeds germinated; for Germination Inhibition: lowest of the two concentrations that inhibited. Summed up: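 Wild-type seeds germinated on ½× Murashige and Skoog medium with compound at 10 and 50 uM, or in a later series at 1, 5, 10, 25 and 50 uM. Reported value is the lowest tested concentration that inhibited germination or hypocotyl growth in wells where seeds germinated.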

A further test addresses T1, PYL5 (Arabidopsis thaliana, UniProt Q9FLB1).
T1 construct: 6X-His; made in house; host or cells: E. coli BL21[DE3]pLysS
T1 sequence (Q9FLB1 1-203): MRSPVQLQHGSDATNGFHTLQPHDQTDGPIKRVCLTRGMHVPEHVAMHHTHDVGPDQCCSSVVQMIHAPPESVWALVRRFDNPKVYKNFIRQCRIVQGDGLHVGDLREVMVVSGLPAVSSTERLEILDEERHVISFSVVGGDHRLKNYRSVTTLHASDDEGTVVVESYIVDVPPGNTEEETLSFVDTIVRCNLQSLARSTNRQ
T1 sequence (Q9CAJ0 23-511 partner): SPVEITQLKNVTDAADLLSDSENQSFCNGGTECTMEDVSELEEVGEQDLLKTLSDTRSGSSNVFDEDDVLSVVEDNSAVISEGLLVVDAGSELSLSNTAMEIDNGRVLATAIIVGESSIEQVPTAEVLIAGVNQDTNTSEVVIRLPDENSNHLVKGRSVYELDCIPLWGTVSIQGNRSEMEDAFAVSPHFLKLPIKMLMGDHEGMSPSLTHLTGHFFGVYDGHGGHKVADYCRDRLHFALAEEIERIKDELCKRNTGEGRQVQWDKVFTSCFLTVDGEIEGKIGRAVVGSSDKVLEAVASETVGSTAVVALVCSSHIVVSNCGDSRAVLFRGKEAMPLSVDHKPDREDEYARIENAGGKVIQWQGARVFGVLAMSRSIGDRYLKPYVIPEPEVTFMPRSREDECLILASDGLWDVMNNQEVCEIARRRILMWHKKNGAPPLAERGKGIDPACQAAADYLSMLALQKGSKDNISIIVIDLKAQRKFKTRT
Kind of test: receptor-mediated PP2C (HAB1) inhibition in vitro assay. Particulars: for remaining activity at 25 µM: compound at 25 μM, control without agonist = 100%; for PYL5 agonist potency and selectivity: compounds with cyclopropyl rings at alpha carbon; for remaining activity at 50 µM: 50 uM of the test compound. It is filed as biochemical. Summed up: (§1)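 Fluorogenic readout: 4-methylumbelliferyl-phosphate hydrolysis by 50 nM GST-HAB1 plus 2:1 His-receptor; Tris-OAc pH 7.9, NaCl, 1 mM MnCl2, β-ME. Compounds at 25 μM or 50 uM single dose; IC50 from dose curves for selected compounds.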

A further test has as its target T2, PYL4 (Arabidopsis thaliana, UniProt O80920).
T2 construct: 6X-His; made in house; host or cells: E. coli BL21[DE3]pLysS
T2 sequence (O80920 1-207): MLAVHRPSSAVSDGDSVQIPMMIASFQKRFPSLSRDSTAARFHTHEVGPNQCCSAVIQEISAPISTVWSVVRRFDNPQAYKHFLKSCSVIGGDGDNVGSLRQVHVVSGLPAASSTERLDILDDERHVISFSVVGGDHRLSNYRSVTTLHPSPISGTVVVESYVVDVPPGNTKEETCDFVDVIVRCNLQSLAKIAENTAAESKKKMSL
T2 sequence (Q9CAJ0 23-511 partner): T1 sequence (Q9CAJ0 23-511 partner)
The test is described as above. To be noted: for remaining activity at 25 µM: compound at 25 μM, control without agonist = 100%; for remaining activity at 50 µM: 50 uM of the test compound; for IC50: Table XII-B, calculated from dose curves, read-out: PP2C Activity (IC50 in uM) PYL4. In kind it is biochemical. In a few lines: as §1

Another test deals with T3, PYL8 (Arabidopsis thaliana, UniProt Q9FGM1).
T3 construct: 6X-His; made in house; host or cells: E. coli BL21[DE3]pLysS
T3 sequence (Q9FGM1 1-188): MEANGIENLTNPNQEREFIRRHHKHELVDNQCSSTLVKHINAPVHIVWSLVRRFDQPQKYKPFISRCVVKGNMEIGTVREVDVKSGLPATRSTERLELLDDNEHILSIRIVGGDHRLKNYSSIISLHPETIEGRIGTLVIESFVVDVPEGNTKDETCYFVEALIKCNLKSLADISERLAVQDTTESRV
T3 sequence (Q9CAJ0 23-511 partner): T1 sequence (Q9CAJ0 23-511 partner)
The test is described as above. It is filed as biochemical. To be noted: for remaining activity at 25 µM: compound at 25 μM, control without agonist = 100%; for remaining activity at 50 µM: 50 uM of the test compound. In a few lines:
as §1

The mark [2] stands for this setting: Table VIII, tested at 10 or 50 μM, ABA at 1 μM, lowest inhibiting concentration, − = none, read-out: Germination Inhibition.
Where [3] appears, read: Table VIII, tested at 10 or 50 μM, lowest inhibiting concentration, − = none, read-out: Hypocotyl Growth Inhibition.
[4] abbreviates: Table VII, read-out: PP2C Dose Curves PYL8 (IC50).
Setting [5] is: Table VII, read-out: PP2C Dose Curves PYL5 (IC50).
The mark [6] stands for this setting: Germination Effects III, tested at 1, 5, 10, 25 and 50 uM, lowest concentration inhibiting hypocotyl growth, — = none, read-out: Growth Inhibition.
Where [7] appears, read: Table XII-B, calculated from dose curves, read-out: PP2C Activity (IC50 in uM) PYL5.
The mark [8] stands for this setting: Table XII-B, calculated from dose curves, read-out: PP2C Activity (IC50 in uM) PYL8.
[9] abbreviates: Germination Effects III, tested at 1, 5, 10, 25 and 50 uM, lowest inhibiting concentration, — = none, read-out: Germination Inhibition.

The text below walks through data of US10757937B2, “Sulfonamides that activate ABA receptors” (The Regents of the University of California, priority 2014, dated 2020).

Like-named read-outs stand apart in the source and are kept apart here.

One may read the IC50 as the concentration at which inhibition is half-maximal.

With `N#Cc1ccc(CS(=O)(=O)NC(=O)C2(c3cccc(F)c3)CCCC2)cc1` [Compound 26], the minimal effective concentration in test [1] (setting [2]) is 50 µM; in test [1] (setting [3]) it was 10 µM. Further, the “Hypocotyl Growth Inhibition” value in test [1] (− = none) was found to be 10 µM. Besides, in test [1] (− = none), the “Germination Inhibition” value was found to be 50 µM. Also, the remaining activity at 25 µM came out at 105% at PYL5, 99% on PYL4 and 33% at PYL8. The IC50 on PYL8 (setting [4]) came out at 11.5 µM.
Turning to `N#Cc1ccc(CS(=O)(=O)NC(=O)C2(c3ccccc3)CCC2)cc1` [Compound 29], the minimal effective concentration in test [1] (setting [2]) amounted to 50 µM; in test [1] (setting [3]), 10 µM. Also, in test [1] (− = none), the “Hypocotyl Growth Inhibition” value was determined as 10 µM. The “Germination Inhibition” value in test [1] (− = none) came to 50 µM. In addition, the IC50 on PYL5 (setting [5]) was more than 50 µM; on PYL8 (setting [4]), 3.36 µM. Also, the remaining activity at 25 µM was determined as 90% on PYL5, 96% at PYL4 and 28% on PYL8.
Consider `N#Cc1ccc(CS(=O)(=O)NC(=O)C2(c3ccc(Br)cc3)CC2)cc1` [Compound 30], for which the minimal effective concentration in test [1] (setting [3]) stood at 50 µM. For the same compound, in test [1] (− = none), the “Hypocotyl Growth Inhibition” value stood at 50 µM. In addition, the IC50 is 0.86 µM on PYL5 (setting [5]) and more than 50 µM on PYL8 (setting [4]). Besides, the results for the remaining activity at 25 µM at PYL5, on PYL4 and at PYL8 were 12%, 90% and 82%, respectively. Further, at PYL5, the “PYL5 agonist potency and selectivity” value is “potent and relatively selective PYL5 agonists”.
As for `N#Cc1ccc(CS(=O)(=O)NC(=O)C2(c3ccc(F)cc3)CCC2)cc1` [Compound 32], the minimal effective concentration in test [1] (setting [2]) came to 50 µM; in test [1] (setting [3]), 10 µM. In test [1] (− = none), the “Hypocotyl Growth Inhibition” value was 10 µM. In addition, the “Germination Inhibition” value in test [1] (− = none) came to 50 µM. The IC50 is more than 50 µM at PYL5 (setting [5]) and 3.23 µM at PYL8 (setting [4]). The remaining activity at 25 µM amounted to 74% at PYL5, 92% on PYL4 and 24% on PYL8.
With `N#Cc1ccc(CS(=O)(=O)NC(=O)C2(c3ccc(F)cc3)CC2)cc1` [Compound 35], the minimal effective concentration in test [1] (setting [3]) is 10 µM. Also, in test [1] (− = none), the “Hypocotyl Growth Inhibition” value was determined as 10 µM. Also, the IC50 at PYL5 (setting [5]) was 3.91 µM; at PYL8 (setting [4]), more than 50 µM. Further, the remaining activity at 25 µM worked out at 20% on PYL5, 94% on PYL4 and 62% at PYL8.
As to `COc1ccccc1C1(C(=O)NS(=O)(=O)Cc2ccc(C#N)cc2)CCC1` [Compound 42], the minimal effective concentration came out at 50 µM in test [1] (setting [2]) and 10 µM in test [1] (setting [3]). Moreover, the “Hypocotyl Growth Inhibition” value in test [1] (− = none) is 10 µM. The “Germination Inhibition” value in test [1] (− = none) is 50 µM. The IC50 on PYL5 (setting [5]) is 29.4 µM; on PYL8 (setting [4]), 52.4 µM. Besides, the remaining activity at 25 µM came to 45% at PYL5, 88% on PYL4 and 65% at PYL8.
In the case of `Cc1cccc(C2(C(=O)NS(=O)(=O)Cc3ccc(C#N)cc3)CCCC2)c1` [Compound 43], the results for the minimal effective concentration in test [1] (setting [2]) and in test [1] (setting [3]) were 50 µM and 10 µM, respectively. In test [1] (− = none), the “Hypocotyl Growth Inhibition” value stood at 10 µM. Besides, the “Germination Inhibition” value in test [1] (− = none) was found to be 50 µM. The results for the remaining activity at 25 µM at PYL5, at PYL4 and on PYL8 were 95%, 95% and 41%, respectively. The IC50 on PYL8 (setting [4]) is 22.7 µM.
Take `Cc1ccccc1C1(C(=O)NS(=O)(=O)Cc2ccc(C#N)cc2)CC1` [Compound 44]: the minimal effective concentration in test [1] (setting [3]) was found to be 50 µM. Moreover, the “Hypocotyl Growth Inhibition” value in test [1] (− = none) came to 50 µM. Further, the IC50 was determined as 2.48 µM on PYL5 (setting [5]) and 49.5 µM on PYL8 (setting [4]). Besides, the results for the remaining activity at 25 µM on PYL5, at PYL4 and on PYL8 were 18%, 89% and 63%, respectively. In addition, at PYL5, the “PYL5 agonist potency and selectivity” value is “potent and relatively selective PYL5 agonists”.
Take `N#Cc1ccc(CS(=O)(=O)NC(=O)C2(c3ccc(F)cc3)CCCCC2)cc1` [Compound 51]: the minimal effective concentration in test [1] (setting [2]) worked out at 10 µM. Moreover, in test [1] (− = none), the “Germination Inhibition” value is 10 µM. In addition, the IC50 on PYL5 (setting [5]) was more than 50 µM; on PYL8 (setting [4]), 1.11 µM. For the same compound, the figures for the remaining activity at 25 µM on PYL5, at PYL4 and at PYL8 were 97%, 93% and 16%, respectively.
In the case of `CC(C)COC(=O)NS(=O)(=O)Cc1ccc(C#N)cc1` [Compound 65, 2-Methylpropyl N-[(4-cyanophenyl)methanesulfonyl]carbamate], the minimal effective concentration in test [1] (setting [6]) turned out to be 50 µM. Also, the remaining activity at 50 µM on PYL5 amounted to 23.6%; on PYL4, 95.5%; at PYL8, 35.8%. Moreover, the values for the IC50 on PYL5 (setting [7]), on PYL4 and at PYL8 (setting [8]) were 14.2 µM, more than 50 µM and 20.4 µM, respectively.
`CC1CCC(C(=O)NS(=O)(=O)Cc2ccc(C#N)cc2)(c2ccc(F)cc2)CC1` (centres unmarked) [Compound 67, N-[(4-Cyanophenyl)methanesulfonyl]-1-(4-fluorophenyl)-4-methylcyclohexane-1-carboxamide]: the minimal effective concentration worked out at 10 µM in test [1] (setting [6]) and 25 µM in test [1] (setting [9]). Moreover, the remaining activity at 50 µM on PYL5 came out at 43%; at PYL4, 91.9%; on PYL8 it was 25.8%. In addition, the IC50 on PYL5 (setting [7]) is 25.3 µM; at PYL4 it was more than 50 µM; at PYL8 (setting [8]) it was 9.6 µM.
Consider `CC1(C)CCC(C(=O)NS(=O)(=O)Cc2ccc(C#N)cc2)(c2ccc(F)cc2)CC1` [Compound 68, N-[(4-Cyanophenyl)methanesulfonyl]-1-(4-fluorophenyl)-4,4-dimethylcyclohexane-1-carboxamide], for which the figures for the minimal effective concentration in test [1] (setting [6]) and in test [1] (setting [9]) were 10 µM and 25 µM, respectively. The remaining activity at 50 µM on PYL5 stood at 103%; at PYL4, 94%; at PYL8, 57.5%. Also, the IC50 at PYL5 (setting [7]), on PYL4 and at PYL8 (setting [8]) was more than 50 µM each time.
For the compound `N#Cc1ccc(CS(=O)(=O)NC(=O)C2(c3ccccc3)CCCCC2)cc1` [Compound 69, N-[(4-Cyanophenyl)methanesulfonyl]-1-phenylcyclohexane-1-carboxamide], the minimal effective concentration amounted to 1 µM in test [1] (setting [6]) and 5 µM in test [1] (setting [9]). The figures for the remaining activity at 50 µM on PYL5, on PYL4 and on PYL8 were 119%, 95% and 14.7%, respectively. Also, the figures for the IC50 at PYL5 (setting [7]), at PYL4 and at PYL8 (setting [8]) were more than 50 µM, more than 50 µM and 0.75 µM, respectively.
